Source: US20260335282A1, “NOVEL 3-ARYLIDENE-2-INDOLINONE DERIVATIVES FOR THERAPEUTIC USE” (ISTANBUL UNIVERSITESI REKTORLUGU, priority 2022, published 2026)
Where two headings read alike, the source gives them in different places.

How the values were obtained:
Type in all cases: cell-based, human
A498 cells = assay: MTT cytotoxicity, kidney cancer cells A498; conditions: MTT
Description: (§1) The cytotoxicity, general tyrosine kinase inhibitory effects and cell death (apoptosis/necrosis) assays of 1-benzyl-3-(1H-indol-3-ylmethylidene)-1,3-dihydro-2H-indol-2-one derivatives (Formula 5) of the present invention are studied by the following methods. […] HUVEC (human umbilical vein endothelial cell), MCF-10F (human breast epithelial cell) and Beas2b (human lung bronchial epithelial cell) cell lines have been used as healthy control cells in MTT experiments.
(§2) Beas2b (human lung bronchiole epithelial cell) and HEK293 (renal tubule epithelium) cells used as normal cell lines were cultured in RPMI medium, and HUVEC (human umbilical cord endothelial cells) and MCF-10F (human breast epithelial cell) cells are cultured in DMEM medium containing 100 µg/ml penicillin/streptomycin. The cells, which covered 70% of the culture flask, are washed with phosphate buffer and then removed from the surface of the flask by application of trypsin-ethylenediamine tetraacetic acid (Trypsin-EDTA; 0.25%) solution, passaged, counted and seeded on appropriate plates before each experiment. Cells are treated with a total of 45 2-indolinone compounds (5) at concentrations of 0.1, 1, 5 and 10 μM. Stock compounds are prepared in 1 ml dimethylsulfoxide (DMSO) and 4 different dilutions were prepared with medium and performed to the cells. Control group cells are treated with DMSO at a similar concentration to the experimental groups.
(§3) MTT (3-(4,5-dimethylthiazol-2-yl)-2,5-diphenyl-2H-tetrazolium bromide) colorimetric assay provides quantitation of viable cells with ongoing mitochondrial activity in culture medium. According to the standard procedure in cell culture conditions, cells are maintained in RPMI-1640 and DMEM culture media containing 10% FBS and 1% penicillin/streptomycin. The trypan blue test is used for cell counts.
(§4) The effects of 45 2-indolinone compounds (5) on cell viability in all cancer cell lines are investigated by MTT assay. Cells are seeded in a 96-well flat bottom plate with 5000 cells in each well and 2-indolinone compounds (5) at concentrations of 0.1, 1, 5 and 10 μM are performed to the cells the next day. After 48 and/or 72 hours following treatment with 2-indolinone compounds, 50 μl of the supernatant is slowly discarded (as it was acid medium) and MTT at a concentration of 5 mg/ml is added to each well in a volume of 10 μl. After incubation for 4 hours, the formazan crystals formed in the wells are dissolved by adding 100 μl DMSO and the optical density is read at 570 nm test wavelength and 630 nm reference wavelength. Cell viability is expressed as % cell viability by comparing the absorbance of control and test wells. IC50 value is calculated from the dose-response curves prepared for each compound. In addition, the possible DMSO effect is eliminated by preparing negative control wells compatible with the amount of DMSO contained in the compounds. To understand the reaction of the compounds with MTT, cell-free (MTT+compounds) negative controls are prepared at the concentrations used (Mosmann, 1983). […] The absorbance values obtained are compared to the control and statistically evaluated by unpaired t-test using “Graphpad Prism 5.04” software. “P<0.05” is accepted as significant. When evaluating cytotoxic effects, the present inventors aim for the inventive compounds to be effective in cancer cells and ineffective in healthy cells. The inventive compounds have also been compared with sunitinib, one of the reference chemotherapy drugs currently used in treatment.
(§5) Among the compounds of the present invention, those that killed cancer cells by at least 50% (p<0.05) are selected and tested whether a 10-fold concentration of the M concentration at the IC50 value is toxic to normal healthy cells.

MIAPaCa-2 cells = assay: MTT cytotoxicity, pancreas cancer cells MIAPaCa-2; conditions: MTT
Description: as §1, §2, §3, §4

MDA-MB-231 cells = assay: MTT cytotoxicity, breast cancer cells MDA-MB-231; conditions: read-out: IC50, MDA-MB-231 (breast), MTT
Description: as §1, §2, §3, §4, §5

MCF-10F/Beas2b cells = assay: MTT cytotoxicity, healthy cells MCF-10F/Beas2b; conditions: for IC50: MTT
Description: as §1, §2, §3, §4, §5

MCF-7 cells = assay: MTT cytotoxicity, breast cancer cells MCF-7; conditions: MTT
Description: as §1, §2, §3, §4, §5

HT-29 cells = assay: MTT cytotoxicity, colon cancer cells HT-29; conditions: MTT, no * mark (incubation time not specified)
Description: as §1, §2, §3, §4

HUVEC cells = assay: MTT cytotoxicity, healthy cells HUVEC; conditions: for IC50: MTT, no * mark (incubation time not specified)
Description: as §1, §2, §3, §4, §5

CAKI-1 cells = assay: MTT cytotoxicity, kidney cancer cells CAKI-1
Description: as §1, §2, §3, §4, §5

A549 cells = assay: MTT cytotoxicity, lung cancer cells A549; conditions: no * mark (incubation time not specified)
Description: as §1, §2, §3, §4, §5

HCT-116 cells = assay: MTT cytotoxicity, colon cancer cells HCT-116; conditions: no * mark (incubation time not specified)
Description: as §1, §2, §3, §4

[1] = no * mark (incubation time not specified)
[2] = *: effective 72 hours after incubation
[3] = no * mark (incubation time not given)

| Compound | IC50 (A498 cells; [1]) | IC50 (MIAPaCa-2 cells; [2]) | IC50 (MDA-MB-231 cells; [3]) | IC50 (MCF-10F/Beas2b cells; [1]) | IC50 (MCF-7 cells; [1]) | IC50 (HT-29 cells) | IC50 (HUVEC cells) | IC50 (CAKI-1 cells; [2]) | IC50 (A549 cells) | IC50 (HCT-116 cells) | IC50 (A498 cells; [2]) | IC50 (CAKI-1 cells; [1]) | IC50 (MDA-MB-231 cells; [2]) | IC50 (MCF-7 cells; [2]) | IC50 (MIAPaCa-2 cells; [1]) | Selectivite Index, MCF-10F/Beas2b (Table 2) (MCF-10F/Beas2b cells; MCF-10F/Beas2b vs colon or pancreas cancer cells, cancer line not given) | Selectivite Index, HUVEC (Table 2) (HUVEC cells; HUVEC vs colon or pancreas cancer cells, cancer line not given) | IC50 (MCF-10F/Beas2b cells; [2]) |
| --- | --- | --- | --- | --- | --- | --- | --- | --- | --- | --- | --- | --- | --- | --- | --- | --- | --- | --- |
| O=C1/C(=C\c2c[nH]c3ccccc23)c2cc(OC(F)(F)F)ccc2N1Cc1cccc(F)c1 [2C] | 4.78 µM | 7.35 µM | 2.91 µM | 3.07 µM | 8.82 µM | > 10 µM | 2.56 µM | 5.46 µM | 3.58 µM | 2.88 µM | – | – | – | – | – | – | – | – |
| O=C1/C(=C\c2c[nH]c3ccccc23)c2cc(OC(F)(F)F)ccc2N1Cc1ccc(F)cc1 [3C] | – | 0.95 µM | 2.27 µM | 2.98 µM | 5.06 µM | 1.38 µM | 4.3 µM | – | 4.22 µM | 5.74 µM | 7.53 µM | 3.7 µM | – | – | – | – | – | – |
| O=C1/C(=C\c2c[nH]c3ccccc23)c2cc(OC(F)(F)F)ccc2N1Cc1cccc(Cl)c1 [4C] | 3.05 µM | 3.67 µM | – | 1.73 µM | – | > 10 µM | 0.97 µM | 2.79 µM | 2.42 µM | 1.13 µM | – | – | 3.07 µM | 3.06 µM | – | – | – | – |
| O=C1/C(=C\c2c[nH]c3ccccc23)c2cc(OC(F)(F)F)ccc2N1Cc1ccc(Cl)cc1 [5C] | – | – | – | 3.46 µM | – | 0.44 µM | 2.72 µM | 6.98 µM | 2.96 µM | 1.97 µM | 2.26 µM | – | 5.8 µM | 3.84 µM | > 10 µM | 7.86 | 6.18 | – |
| Cc1cccc(CN2C(=O)/C(=C\c3c[nH]c4ccccc34)c3cc(OC(F)(F)F)ccc32)c1 [6C] | > 10 µM | > 10 µM | 9.87 µM | – | 4.72 µM | > 10 µM | > 10 µM | – | > 10 µM | > 10 µM | – | 9.66 µM | – | – | – | – | – | – |
| O=C1/C(=C\c2c[nH]c3ccccc23)c2cc(F)ccc2N1Cc1ccc(F)cc1 [10C] | 3.81 µM | – | – | 2.99 µM | > 10 µM | 2.29 µM | 4.65 µM | 6.69 µM | 3.49 µM | 3.96 µM | – | – | 8.13 µM | – | 2.77 µM | – | – | – |
| O=C1/C(=C\c2c[nH]c3ccccc23)c2cc(F)ccc2N1Cc1cccc(Cl)c1 [11C] | > 10 µM | > 10 µM | 7.25 µM | – | > 10 µM | > 10 µM | > 10 µM | – | > 10 µM | > 10 µM | – | 9.81 µM | – | – | – | – | – | – |
| O=C1/C(=C\c2c[nH]c3ccccc23)c2cc(F)ccc2N1Cc1ccc(Cl)cc1 [12C] | – | – | – | 2.46 µM | – | 1.08 µM | 0.55 µM | – | 1.68 µM | 0.64 µM | 0.63 µM | 2.81 µM | 6.8 µM | 2.63 µM | 0.49 µM | – | – | 2.46 µM |
| Cc1cccc(CN2C(=O)/C(=C\c3c[nH]c4ccccc34)c3cc(F)ccc32)c1 [13C] | 2.66 µM | 1.51 µM | > 10 µM | 2.63 µM | > 10 µM | > 10 µM | 2.24 µM | – | 3.43 µM | > 10 µM | – | > 10 µM | – | – | – | – | – | – |
| O=C1C(=Cc2c[nH]c3ccccc23)c2cc(Cl)ccc2N1Cc1cccc(Cl)c1 [18C] | 1.75 µM | 1.54 µM | 7.99 µM | 1.07 µM | 5.53 µM | 3.12 µM | 1.07 µM | – | 6.57 µM | 3.94 µM | – | 3.46 µM | – | – | – | – | – | – |
